In PubChem BioAssay AID328 (DTP/NCI, 2004) one finds T/C data, which are given here for 17 molecules.

Each structure is given as a SMILES string. “And” between values parts separate entries of the source, which are not always exact repeats. Identical values can stand only once. Toxic doses and inconclusive results are not listed.

The subject of this assay is BDF1 mice, P388 leukemia ip, median survival T/C. Put plainly: NCI In Vivo Anticancer Drug Screen. Data for tumor model P388 Leukemia (intraperitoneal) in B6D2F1 (BDF1) mice. The settings on record: endpoint: median survival time, higher = longer survival. The procedure, abridged:
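T/C = treated-group survival ÷ vehicle-control survival; tumour transplanted into mice before dosing.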

Setting [1] is: dose: 50.0 mg/kg/injection, schedule: Q01DX009 (ip), vehicle: Klucel (hydroxypropylcellulose) (HPC).
The mark [2] stands for this setting: dose: 100.0 mg/kg/injection, schedule: Q01DX009 (ip), vehicle: Klucel (hydroxypropylcellulose) (HPC).
The mark [3] stands for this setting: dose: 200.0 mg/kg/injection, schedule: Q01DX009 (ip), vehicle: Klucel (hydroxypropylcellulose) (HPC).
Setting [4] is: dose: 400.0 mg/kg/injection, schedule: Q01DX009 (ip), vehicle: Klucel (hydroxypropylcellulose) (HPC).
Where [5] appears, read: dose: 100.0 mg/kg/injection, schedule: Q01DX009 (ip), vehicle: saline.
Where [6] appears, read: dose: 100.0 mg/kg/injection, schedule: Q04DX003 (ip), vehicle: saline.
Setting [7] is: dose: 200.0 mg/kg/injection, schedule: Q04DX003 (ip), vehicle: saline.
[8] abbreviates: dose: 12.5 mg/kg/injection, schedule: Q01DX009 (ip), vehicle: saline with Tween-80.
[9] abbreviates: dose: 100.0 mg/kg/injection, schedule: Q04DX003 (ip), vehicle: Klucel (hydroxypropylcellulose) (HPC).
Setting [10] is: dose: 200.0 mg/kg/injection, schedule: Q04DX003 (ip), vehicle: Klucel (hydroxypropylcellulose) (HPC).
Where [11] appears, read: dose: 400.0 mg/kg/injection, schedule: Q04DX003 (ip), vehicle: Klucel (hydroxypropylcellulose) (HPC).

Take `N#Cc1cc2c3c(c1)CCCN3CCC2`: the T/C was 100 % of control (dose: 40.0 mg/kg/injection, schedule: Q01DX001 (ip), vehicle: saline with Tween-80); 95 % of control (dose: 80.0 mg/kg/injection, schedule: Q01DX001 (ip), vehicle: saline with Tween-80); 109 % of control (dose: 160.0 mg/kg/injection, schedule: Q01DX001 (ip), vehicle: saline with Tween-80).
Turning to `CC1OC(OC2CC(O)(C(=O)CO)Cc3c(O)c4c(c(O)c32)C(=O)c2ccccc2C4=O)CC(N)C1O` (centres undefined), the T/C was 155 % of control (dose: 216.0 micrograms/kg/injection, schedule: Q04DX003 (ip), vehicle: water); 163 % of control (dose: 360.0 micrograms/kg/injection, schedule: Q04DX003 (ip), vehicle: water); 166 % of control (dose: 600.0 micrograms/kg/injection, schedule: Q04DX003 (ip), vehicle: water).
As for `O=NN(CCCl)C(=O)Nc1c[nH]c2ccccc12`, the T/C by setting is: under setting [1], 92 % of control; under setting [2], 107 % of control; under setting [3], 108 % of control; under setting [4], 117 % of control.
In the case of `COc1cc(/C=C(/C)[N+](=O)[O-])ccc1O`, the T/C is 118 % of control (dose: 12.5 mg/kg/injection, schedule: Q01DX009 (ip), vehicle: carboxymethylcellulose (CMC)); 121 % of control (dose: 18.75 mg/kg/injection, schedule: Q01DX009 (ip), vehicle: Klucel (hydroxypropylcellulose) (HPC)); 103 % of control and 112 % of control (dose: 25.0 mg/kg/injection, schedule: Q01DX009 (ip), vehicle: Klucel (hydroxypropylcellulose) (HPC)); 116 % of control under setting [1]; 122 % of control (dose: 50.0 mg/kg/injection, schedule: Q01DX009 (ip), vehicle: saline); 109 % of control (dose: 50.0 mg/kg/injection, schedule: Q04DX003 (ip), vehicle: saline). Further, the T/C runs as follows: under setting [2], 114 % of control; under setting [5], 92 % of control; under setting [6], 113 % of control; under setting [3], 114 % of control; (dose: 200.0 mg/kg/injection, schedule: Q01DX009 (ip), vehicle: saline) 122 % of control; under setting [7], 118 % of control.
On to `CC1=CC(=O)[C@@H](O)[C@]2(C)[C@H]3[C@@]4(O)OC[C@]35[C@H]([C@@H](C)[C@H]4O)[C@@H](O)C(=O)O[C@@H]5C[C@@H]12`, for which the T/C runs as follows: (dose: 1.0 mg/kg/injection, schedule: Q01DX010 (ip), vehicle: steriod suspending solution) 150 % of control; (dose: 1.5 mg/kg/injection, schedule: Q01DX010 (ip), vehicle: acetone) 100 % of control; (dose: 2.0 mg/kg/injection, schedule: Q01DX010 (ip), vehicle: steriod suspending solution) 107 % of control; (dose: 3.0 mg/kg/injection, schedule: Q01DX010 (ip), vehicle: acetone) 103 % of control; (dose: 4.0 mg/kg/injection, schedule: Q01DX010 (ip), vehicle: steriod suspending solution) 107 % of control; (dose: 6.0 mg/kg/injection, schedule: Q01DX010 (ip), vehicle: acetone) 115 % of control. Besides, the T/C reads like this: (dose: 8.0 mg/kg/injection, schedule: Q01DX010 (ip), vehicle: steriod suspending solution) 150 % of control; (dose: 12.0 mg/kg/injection, schedule: Q01DX010 (ip), vehicle: acetone) 123 % of control.
With `CCN(CC)CCOc1ccc(C2=C(c3ccccc3)CCc3cc(OC)ccc32)cc1`, the T/C was 90 % of control under setting [8]; 90 % of control (dose: 25.0 mg/kg/injection, schedule: Q01DX009 (ip), vehicle: saline with Tween-80); 95 % of control and 118 % of control (dose: 50.0 mg/kg/injection, schedule: Q01DX009 (ip), vehicle: saline with Tween-80).
Turning to `CCOC1C=CC(OC(C)=O)C(COC(C)=O)O1` (centres undefined), the T/C is 90 % of control under setting [2]; 100 % of control under setting [9]; 86 % of control under setting [3]; 104 % of control under setting [10]; 100 % of control under setting [4]; 100 % of control under setting [11].
For `O=C1C=CC(=O)C(c2ccccc2)=C1`, the T/C by setting is: (dose: 12.5 mg/kg/injection, schedule: Q01DX001 (ip), vehicle: Klucel (hydroxypropylcellulose) (HPC)) 110 % of control; (dose: 25.0 mg/kg/injection, schedule: Q01DX001 (ip), vehicle: Klucel (hydroxypropylcellulose) (HPC)) 100 % of control; (dose: 50.0 mg/kg/injection, schedule: Q01DX001 (ip), vehicle: Klucel (hydroxypropylcellulose) (HPC)) 100 % of control.
`COc1cc(NC(=O)N(CCCl)N=O)cc(OC)c1OC`: the T/C (dose: 0.88 mg/kg/injection, schedule: Q04DX003 (ip), vehicle: saline + alcohol) was 114 % of control; the T/C (dose: 1.6 mg/kg/injection, schedule: Q01DX009 (ip), vehicle: saline + alcohol) is 168 % of control; the T/C (dose: 2.4 mg/kg/injection, schedule: Q01DX009 (ip), vehicle: saline + alcohol) was 161 % of control; the T/C (dose: 3.0 mg/kg/injection, schedule: Q04DX003 (ip), vehicle: saline + alcohol) was 166 % of control; the T/C (dose: 3.7 mg/kg/injection, schedule: Q01DX009 (ip), vehicle: saline + alcohol) was 203 % of control; the T/C (dose: 5.5 mg/kg/injection, schedule: Q04DX003 (ip), vehicle: saline + alcohol) was 168 % of control. Besides, the T/C is 201 % of control and 203 % of control (dose: 5.56 mg/kg/injection, schedule: Q01DX009 (ip), vehicle: saline + alcohol); 218 % of control (dose: 8.3 mg/kg/injection, schedule: Q04DX003 (ip), vehicle: saline + alcohol); 220 % of control (dose: 8.33 mg/kg/injection, schedule: Q01DX009 (ip), vehicle: saline + alcohol); 226 % of control (dose: 12.5 mg/kg/injection, schedule: Q01DX009 (ip), vehicle: saline + alcohol); 227 % of control (dose: 12.5 mg/kg/injection, schedule: Q04DX003 (ip), vehicle: saline + alcohol); 111 % of control (dose: 18.7 mg/kg/injection, schedule: Q01DX009 (ip), vehicle: saline + alcohol). The T/C is, setting by setting: (dose: 18.7 mg/kg/injection, schedule: Q04DX003 (ip), vehicle: saline + alcohol) 268 % of control; (dose: 25.0 mg/kg/injection, schedule: Q01DX009 (ip), vehicle: saline + alcohol) 108 % of control.
Regarding `Nc1nc(=S)c2ncn(C3OC(CO)CC3O)c2[nH]1` (centres undefined), the T/C under setting [5] was 95 % of control.
`O=C(C=C(C(F)(F)F)C(F)(F)F)c1cccc(Cl)c1`: the T/C runs as follows: (dose: 6.25 mg/kg/injection, schedule: Q01DX009 (ip), vehicle: saline with Tween-80) 122 % of control; under setting [8], 100 % of control.
Regarding `Cc1cc(NCCCCNCCCNc2cc(C)nc3cc(N)ccc23)c2ccc(N)cc2n1`, the T/C (dose: 12.5 mg/kg/injection, schedule: Q01DX009 (ip), vehicle: other) is 155 % of control.
As for `COc1ccccc1NC(=O)Oc1c(C(C)C)cccc1C(C)C`, the T/C is, setting by setting: under setting [9], 95 % of control; under setting [10], 87 % of control; under setting [11], 100 % of control.
Consider `CCOC(=O)C(C)(C)CSC(C)(C)C(=O)OCC`, for which the T/C under setting [6] is 90 % of control; the T/C under setting [7] was 90 % of control; the T/C (dose: 400.0 mg/kg/injection, schedule: Q04DX003 (ip), vehicle: saline) is 95 % of control.
As to `CCC(CO)NC(=O)Nc1cccc2ccccc12` (centres undefined), the T/C reads like this: (dose: 100.0 mg/kg/injection, schedule: Q01DX001 (ip), vehicle: saline with Tween-80) 109 % of control; (dose: 200.0 mg/kg/injection, schedule: Q01DX001 (ip), vehicle: saline with Tween-80) 100 % of control; (dose: 400.0 mg/kg/injection, schedule: Q01DX001 (ip), vehicle: saline with Tween-80) 109 % of control.
Consider `CC(=O)O[C@@]1(C)C(=O)OCC2=CCN3CC[C@@H](OC(=O)[C@H](C)[C@]1(C)OC(C)=O)[C@@H]23`, for which the T/C was 105 % of control (dose: 25.0 mg/kg/injection, schedule: Q01DX010 (ip), vehicle: carboxymethylcellulose (CMC)) and 90 % of control (dose: 50.0 mg/kg/injection, schedule: Q01DX010 (ip), vehicle: carboxymethylcellulose (CMC)).
Consider `CC[CH2][Pb]([CH2]CC)([CH2]CC)[N]1C(=O)c2ccccc2C1=O`, for which the T/C reads like this: (dose: 3.12 mg/kg/injection, schedule: Q01DX009 (ip), vehicle: Klucel (hydroxypropylcellulose) (HPC)) 108 % of control and 123 % of control; (dose: 6.25 mg/kg/injection, schedule: Q01DX009 (ip), vehicle: Klucel (hydroxypropylcellulose) (HPC)) 110 % of control and 123 % of control; (dose: 12.5 mg/kg/injection, schedule: Q01DX009 (ip), vehicle: Klucel (hydroxypropylcellulose) (HPC)) 123 % of control.
